Measured values published in patent publication US9890166B2, “Imidazopyrrolidine derivatives and their use in the treatment of disease” (NOVARTIS AG, priority 2013, dated 2018).

Tests used:
THP-1 cells = experiment: Cell growth inhibition assay (CellTiter-Glo), THP-1; conditions: for GI50: Homo sapiens, THP-1, read-out: THP-1 GI50; for THP-1 TGI: THP-1 cells, total growth inhibition, CellTiter-Glo;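 for all read-outs here: viability read as cellular ATP luminescence after 4 days, 3-fold dilution series from 10 µM, DMSO vehicle-treated cells taken as 100%, cell-free medium wells as −100%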
BRD3 (His-Brd3(20-477)) = BRD3 (His-Brd3(20-477)) (Homo sapiens (Human), UniProt Q15059); experiment: TR-FRET in-vitro binding assay for BRD3; conditions: single determination or n ≧ 2 independent determinations, read-out: Biochemical IC50 BRD3
BRD3 (His-Brd3(20-477)), sequence (Q15059 20-477): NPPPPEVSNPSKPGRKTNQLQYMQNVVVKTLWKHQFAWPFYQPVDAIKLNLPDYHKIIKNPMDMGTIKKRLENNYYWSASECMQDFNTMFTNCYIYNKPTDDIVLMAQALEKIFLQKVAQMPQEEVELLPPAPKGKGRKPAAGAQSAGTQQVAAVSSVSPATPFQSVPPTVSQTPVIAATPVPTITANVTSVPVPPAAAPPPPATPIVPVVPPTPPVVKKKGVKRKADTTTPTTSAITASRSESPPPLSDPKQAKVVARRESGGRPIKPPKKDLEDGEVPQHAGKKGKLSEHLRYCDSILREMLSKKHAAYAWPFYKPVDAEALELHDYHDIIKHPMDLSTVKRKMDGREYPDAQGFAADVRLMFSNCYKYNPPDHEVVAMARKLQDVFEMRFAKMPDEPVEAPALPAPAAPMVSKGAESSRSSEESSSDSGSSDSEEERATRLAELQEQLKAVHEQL
Experimental: (§1) TR-FRET In-Vitro Binding Assays for BRD2, BRD3, and BRD4:
(§2) All assays were performed in 384 well microtiter plates. Each assay plate contained 8-point serial dilutions for 40 test compounds, plus 16 high- and 16 low controls. Liquid handling and incubation steps were done on an Innovadyne Nanodrop Express equipped with a robotic arm (Thermo CatX, Perkin Elmer/Caliper Twister II) and an incubator (Liconic STX40, Thermo Cytomat 2C450). The assay plates were prepared by addition of 50 nl per well of compound solution in 90% DMSO HummingBird nanodispenser (Zinsser Analytic). […] Reactions were incubated at 30° C. for 35 minutes. […] After 35 minutes incubation at 30° C., plates were measured in a Perkin Elmer EnVision multilabel reader.
(§3) Preparation of Compound Dilutions
(§4) Test compounds were dissolved in DMSO (10 mM) and transferred into 1.4 mL flat bottom or V-shaped Matrix tubes carrying a unique 2D matrix. The stock solutions were stored at […] if not used immediately. For the test procedure the vials were defrosted and identified by a scanner whereby a working sheet was generated that guided the subsequent working steps.
(§5) Compound dilutions were made in 96 well plates. This format enabled the assay of maximally 40 individual test compounds at 8 concentrations (single points) including 4 reference compounds, if desired (known BET inhibitors from the prior art, for this and other assays of the type disclosed herein). The dilution protocol included the production of “pre-dilution plates”, “master plates” and “assay plates”.
(§6) Pre-Dilution Plates: 96 polypropylene well plates were used as pre-dilution plates. A total of 4 pre-dilution plates were prepared including 10 test compounds each on the plate positions A1-A10, one standard compound at A11 and one DMSO control at A12. All dilution steps were done on a HamiltonSTAR robot.
(§7) These plates were used directly for the assay which was performed in a total volume of 13.55 μL.

BRD4 (His-Brd4(44-477)) = BRD4 (His-Brd4(44-477)) (Homo sapiens (Human), UniProt O60885); experiment: TR-FRET in-vitro binding assay for BRD4; conditions: single determination or n ≧ 2 independent determinations, read-out: Biochemical IC50 BRD4
Experimental: as §1, §2, §3, §4, §5, §6, §7

MV-4-11 cells = experiment: Cell growth inhibition assay (CellTiter-Glo), MV-4-11; conditions: for GI50: Homo sapiens, MV4-11, read-out: MV-4-11 GI50; for MV-4-11 TGI: MV-4-11 cells, total growth inhibition, CellTiter-Glo;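 for all read-outs here: cellular ATP luminescence after 4 days, 3-fold dilution series from 10 µM top dose, vehicle (0.1% DMSO) set to 100%, cell-free medium set to −100%, day 0 corrected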
BRD2 (His-Brd2(60-472)) = BRD2 (His-Brd2(60-472)) (Homo sapiens (Human), UniProt P25440); experiment: TR-FRET in-vitro binding assay for BRD2; conditions: single determination or n ≧ 2 independent determinations, read-out: Biochemical IC50 BRD2
BRD2 (His-Brd2(60-472)), sequence (P25440 60-472): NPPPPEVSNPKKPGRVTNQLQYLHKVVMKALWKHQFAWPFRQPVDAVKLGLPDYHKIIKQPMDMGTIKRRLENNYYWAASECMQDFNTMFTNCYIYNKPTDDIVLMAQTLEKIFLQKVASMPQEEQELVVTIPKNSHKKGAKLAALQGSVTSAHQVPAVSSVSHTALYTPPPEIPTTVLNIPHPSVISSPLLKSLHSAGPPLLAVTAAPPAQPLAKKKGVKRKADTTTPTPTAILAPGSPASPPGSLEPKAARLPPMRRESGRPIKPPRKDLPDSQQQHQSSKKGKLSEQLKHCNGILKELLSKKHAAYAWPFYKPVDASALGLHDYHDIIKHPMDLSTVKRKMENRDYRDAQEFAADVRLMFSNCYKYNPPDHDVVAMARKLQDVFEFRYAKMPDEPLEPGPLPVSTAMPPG
Experimental: as §1, §2, §3, §4, §5, §6, §7

K-562 cells = experiment: Cell growth inhibition assay (CellTiter-Glo), K-562; conditions: for GI50: Homo sapiens, K562, read-out: K-562 GI50; for K-562 TGI: K-562 cells, total growth inhibition, CellTiter-Glo;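 for all read-outs here: cellular ATP measured by luminescence after 4 days of exposure, 3-fold dilution series from 10 µM, DMSO vehicle-treated cells define 100%, cell-free medium wells −100%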
[1] = molecular target: CREBBP bromodomain (His-CREBBP(1081-1197)) (Homo sapiens (Human), UniProt Q92793); experiment: AlphaScreen in-vitro binding assay for CREBBP; conditions: single determination or n ≧ 2 independent determinations, read-out: Biochemical IC50 CREBBP
CREBBP bromodomain (His-CREBBP(1081-1197)), sequence (Q92793 1081-1197): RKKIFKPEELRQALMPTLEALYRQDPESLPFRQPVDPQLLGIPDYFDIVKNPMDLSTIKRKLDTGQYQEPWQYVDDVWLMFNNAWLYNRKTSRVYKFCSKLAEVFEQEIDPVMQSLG
Experimental: AlphaScreen In-Vitro Binding Assay for CREBBP
In order to assess bromodomain selectivity, we set up a binding assay using the bromodomain encoded by the CREBBP gene. […] Reactions were incubated at 30° C. for 35 minutes. Subsequently 4.5 μl per well detection mix (50 mM HEPES, pH 7.5, 0.005% Tween20, 0.02% BSA, 150 mM NaCl, 45 μg/ml Ni-chelate acceptor beads, 45 μg/mIstreptavidin-donor beads) (Perkin Elmer)) were added. After 60 minutes incubation at room temperature, plates were measured in a Perkin Elmer EnVision multilabel reader. IC50 values were determined from percent inhibition values at different compound concentrations by non-linear regression analysis.
as §3, §4, §5, §6, §7

SMILES	GI50 (THP-1 cells)	IC50 (BRD3 (His-Brd3(20-477)))	IC50 (BRD4 (His-Brd4(44-477)))	GI50 (MV-4-11 cells)	IC50 (BRD2 (His-Brd2(60-472)))	GI50 (K-562 cells)	IC50 [1]	THP-1 TGI (THP-1 cells)	MV-4-11 TGI (MV-4-11 cells)	K-562 TGI (K-562 cells)
COc1ncccc1-c1nc2c(n1C(C)C)C(c1ccc(Cl)cc1)N(c1cc(C)c3nnn(C)c3c1)C2=O (racemic) [Example 77, 6-(4-chlorophenyl)-5-(1,4-dimethyl-1H-benzo[d][1,2,3]triazol-6-yl)-1-isopropyl-2-(2-methoxypyridin-3-yl)-5,6-dihydropyrrolo[3,4-d]imidazol-4(1H)-one]	7.94 nM	39 nM	< 24 nM	4.93 nM	52 nM	21.5 nM	–	21.7 nM	9.36 nM	>10000 nM
Cc1cc(N2C(=O)c3nc(-c4nccs4)n(C(C)C)c3C2c2ccc(Cl)cc2)cn(C)c1=O (stereo not drawn) [Example 23, 6-(4-chlorophenyl)-5-(1,5-dimethyl-6-oxo-1,6-dihydropyridin-3-yl)-1-isopropyl-2-(thiazol-2-yl)-5,6-dihydropyrrolo[3,4-d]imidazol-4(1H)-one]	158 nM	68 nM	52 nM	87.5 nM	55 nM	381 nM	–	311 nM	143 nM	>10000 nM
Cc1nc(C)c(-c2nc3c(n2C(C)C)C(c2ccc(Cl)cc2)N(c2cc(C)c(=O)n(C)c2)C3=O)s1 (stereo not drawn) [Example 25, 6-(4-chlorophenyl)-5-(1,5-dimethyl-6-oxo-1,6-dihydropyridin-3-yl)-2-(2,4-dimethylthiazol-5-yl)-1-isopropyl-5,6-dihydropyrrolo[3,4-d]imidazol-4(1H)-one]	118 nM	79 nM	99 nM	65.7 nM	120 nM	528 nM	–	209 nM	90.4 nM	>10000 nM
Cc1cc(N2C(=O)c3nc(-c4cccnc4F)n(C)c3C2c2ccc(Cl)cc2)cn(C)c1=O (stereo not drawn) [Example 32, 6-(4-chlorophenyl)-5-(1,5-dimethyl-6-oxo-1,6-dihydropyridin-3-yl)-2-(2-fluoropyridin-3-yl)-1-methyl-5,6-dihydropyrrolo[3,4-d]imidazol-4(1H)-one]	–	130 nM	170 nM	–	180 nM	–	–	–	–	–
Cc1cc(N2C(=O)c3nc(C4=CCOCC4)[nH]c3[C@H]2c2ccc(Cl)cc2)cn(C)c1=O [Example 152, (R)-6-(4-chlorophenyl)-2-(3,6-dihydro-2H-pyran-4-yl)-5-(1,5-dimethyl-6-oxo-1,6-dihydropyridin-3-yl)-5,6-dihydropyrrolo[3,4-d]imidazol-4(1H)-one]	62.7 nM	22.5 nM	25 nM	34.4 nM	–	244 nM	525 nM	135.5 nM	57.3 nM	>10000 nM
Cc1cc(N2C(=O)c3nc(C4=CCOCC4)n(C(C)C)c3C2c2ccc(Cl)cc2)nc2c1nnn2C (stereo not drawn) [Example 160, 6-(4-chlorophenyl)-2-(3,6-dihydro-2H-pyran-4-yl)-5-(3,7-dimethyl-3H-[1,2,3]triazolo[4,5-b]pyridin-5-yl)-1-isopropyl-5,6-dihydropyrrolo[3,4-d]imidazol-4(1H)-one]	4.6 nM	< 11 nM	< 11 nM	5.95 nM	–	25.8 nM	> 37000 nM	6.383 nM	4.973 nM	>7000 nM
Cc1cc(N2C(=O)c3nc(C4=CCOCC4)[nH]c3C2c2ccc(Cl)cc2)nc2c1nnn2C (stereo not drawn) [Example 162, 6-(4-chlorophenyl)-2-(3,6-dihydro-2H-pyran-4-yl)-5-(3,7-dimethyl-3H-[1,2,3]triazolo[4,5-b]pyridin-5-yl)-5,6-dihydropyrrolo[3,4-d]imidazol-4(1H)-one]	5.03 nM	13 nM	11.5 nM	4.37 nM	–	41 nM	> 37000 nM	10.54 nM	11.12 nM	>7000 nM

Further lines, with some results ahead:

GI50 (THP-1 cells)	IC50 (BRD3 (His-Brd3(20-477)))	IC50 (BRD4 (His-Brd4(44-477)))	GI50 (MV-4-11 cells)	IC50 (BRD2 (His-Brd2(60-472)))	GI50 (K-562 cells)	IC50 [1]	SMILES	THP-1 TGI (THP-1 cells)	MV-4-11 TGI (MV-4-11 cells)	K-562 TGI (K-562 cells)
15.8 nM	16 nM	13 nM	15.5 nM	–	53.3 nM	> 37000 nM	COc1ncccc1-c1nc2c([nH]1)C(c1ccc(Cl)cc1)N(c1cc(C)c3nnn(C)c3n1)C2=O (stereo not drawn) [Example 163, 6-(4-chlorophenyl)-5-(3,7-dimethyl-3H-[1,2,3]triazolo[4,5-b]pyridin-5-yl)-2-(2-methoxypyridin-3-yl)-5,6-dihydropyrrolo[3,4-d]imidazol-4(1H)-one]	25.75 nM	29.05 nM	>10000 nM
1.12 nM	< 11 nM	< 11 nM	0.887 nM	–	13.2 nM	11200 nM	Cc1cc(N2C(=O)c3nc(C4=CCOCC4)n(C(C)C)c3[C@H]2c2ccc(Cl)cc2)nc2c1nnn2C [Example 164, (R)-6-(4-chlorophenyl)-2-(3,6-dihydro-2H-pyran-4-yl)-5-(3,7-dimethyl-3H-[1,2,3]triazolo[4,5-b]pyridin-5-yl)-1-isopropyl-5,6-dihydropyrrolo[3,4-d]imidazol-4(1H)-one]	2.43 nM	1.83 nM	>10000 nM
4 nM	18 nM	19 nM	4.12 nM	–	47.9 nM	14800 nM	Cc1cc(N2C(=O)c3nc(C4=CCOCC4)[nH]c3[C@H]2c2ccc(Cl)cc2)nc2c1nnn2C [Example 165, (R)-6-(4-chlorophenyl)-2-(3,6-dihydro-2H-pyran-4-yl)-5-(3,7-dimethyl-3H-[1,2,3]triazolo[4,5-b]pyridin-5-yl)-5,6-dihydropyrrolo[3,4-d]imidazol-4(1H)-one]	15.67 nM	12.74 nM	>10000 nM
7.54 nM	12 nM	13 nM	5.42 nM	–	84.6 nM	33100 nM	COc1ncccc1-c1nc2c([nH]1)[C@@H](c1ccc(Cl)cc1)N(c1cc(C)c3nnn(C)c3n1)C2=O [Example 166, (R)-6-(4-chlorophenyl)-5-(3,7-dimethyl-3H-[1,2,3]triazolo[4,5-b]pyridin-5-yl)-2-(2-methoxypyridin-3-yl)-5,6-dihydropyrrolo[3,4-d]imidazol-4(1H)-one]	11.28 nM	8.15 nM	>10000 nM
6.28 nM	17 nM	13 nM	5.22 nM	–	19.6 nM	980 nM	Cc1cc(N2C(=O)c3nc(C4CCOC4)n(C(C)C)c3[C@H]2c2ccc(Cl)cc2)cc2c1nnn2C (stereo partly drawn) [Example 172, (6R)-6-(4-chlorophenyl)-5-(1,4-dimethyl-1H-benzo[d][1,2,3]triazol-6-yl)-1-isopropyl-2-(tetrahydrofuran-3-yl)-5,6-dihydropyrrolo[3,4-d]imidazol-4(1H)-one]	12.26 nM	10.33 nM	>10000 nM
